# Reference: patent US20230337677A1, “ARYL AND PYRIDYL AMIDE PESTICIDES AND COMPOSITIONS THEREOF” (University of Florida Research Foundation, Incorporated, priority 2019, published 2023)
# Structures can show the parent of a compound that is named as a salt.
# Tests used:
# Format in all cases: in vivo
# [1] = tested on: Aedes aegypti mosquitoes, insecticide-susceptible Orlando strain; conditions: for 1 h % Repellency, 100 μg/cm^2: screened at 100 μg/cm^2, strain not given; for 1 h Repellency EC50, μg/cm^2: (OR); for vapor repellency / mortality, statement in words (Example 8): structure-activity analysis of Table 2
# Method: The tubes as shown were held horizontally on the bench.
# For assessing behavioral repellency (FIG. 1), Aedes aegypti mosquitoes were used from the insecticide-susceptible Orlando strain and the pyrethroid-resistant Puerto Rico strain. Sixteen female mosquitoes were transferred to a glass tube (12.5 cm long, 2.5 cm outer diameter) with the ends covered with netting. Each compound was dissolved in 1 mL of acetone and serial dilutions ranging from 30-0.01 μg/ml were made. Circular filter papers (5 cm^2) were saturated with 50 μL of each concentration and allowed 10 min for solvent evaporation. The filter papers were then placed in clear conical polypropylene caps and fixed to the end of the glass tubes. The netting prevented mosquito contact with the filter paper. The tubes were then aligned with a mark denoting the midline and the proportion of mosquitoes on the chemically treated side was scored for up to 60 min. At the end of the test, the tube was placed in a cage and the ability of the mosquitoes to fly out of the tube was assessed for 30 min. […] This post-test evaluated whether any non-responding mosquitoes (not repelled) resulted from intoxication or disorientation from the test chemical. For assessment of lethality, insects were held for 24 hr under constant exposure in glass tubes having treated filter papers.
# Compounds were first screened at 100 μg/cm^2 for repellency and 24 h mortality.
# [2] = tested on: Anopheles gambiae Akron kdr (Akdr) strain, resistant to pyrethroids; experiment: Topical toxicity (24 hour mortality), An. gambiae Akdr; conditions: topical application, 24 h mortality, female adults, pyrethroid-resistant Akdr strain
# Method: (§1) The Aedes aegypti strains Orlando (sensitive) as well as the Puerto Rico (PR, resistant to permethrin) were used. The Anopheles gambiae (G3 sensitive strain, as well as Akron kdr (Akdr) strain, resistant to pyrethroids were also assessed. The larvae were provided by the USDA, Gainesville Fl, and raised in a pan with tap water maintained at 28° C. Larvae were fed a ground liver and yeast mixture, and pupae were placed in emergence cages. Adults were held at 28° C. and provided with cotton balls soaked in 10% sugar water for rearing and for all bioassays.
# (§2) Female adults from 3 to 6 days were used for the experiments. The drug was dissolved in ethanol and then applied with a micro-applicator on the thorax, between the legs: 200 nL of drug per female mosquito, with different concentrations of the drug; 10 mosquitos were treated together per concentration per replicate, and put together in a small container with free access to sweet water. Mortality, i.e. no visible movement, was assessed 24 hours after treatment. Every compound was assessed on at least 3 different cohorts of mosquitoes, and the LD50 values and slopes were determined with Probit analysis, corrected with Abbott's formula.
# [3] = tested on: Aedes aegypti strain Orlando (sensitive); experiment: Topical toxicity (24 hour mortality), Ae. aegypti Orlando; conditions: topical application, 24 h mortality, female adults, susceptible Orlando strain
# Method: as §1, §2
# [4] = tested on: Anopheles gambiae G3 sensitive strain; experiment: Topical toxicity (24 hour mortality), An. gambiae G3; conditions: topical application, 24 h mortality, female adults, susceptible strain G3
# Method: as §1, §2
Structure (SMILES),"1 h % Repellency, 100 μg/cm^2 [1]",Ae. aegypti OR LD50 [3],also measured
O=C(CCC1CCCCC1)Nc1cccc(C(F)(F)F)c1 [MTFI-3-3A],16%,–,–
O=C(Nc1ccnc(Cl)c1)C(F)(F)C(F)(F)C(F)(F)C(F)(F)C(F)(F)F [GMR068],–,3425 ng/mg,An. gambiae AKDR LD50 [2]: 3425 ng/mg
"CC1(C)C(C=C(Cl)Cl)C1C(=O)O (stereo not drawn) [TFA, 1R-transfluthrin acid, reference compound]",–,–,repellency of TFA alone ([1]; alone): inactive alone
CC(C)(C)OC(=O)N(C(=O)C(F)(F)F)c1cc(Cl)nc(Cl)c1 [GMR119],–,343 ng/mg,–
O=C(Nc1c(F)c(F)nc(F)c1F)C(F)(F)F [GMR081],–,698 ng/mg,An. gambiae AKDR LD50 [2]: >100 ng/mg
CCCC(=O)Nc1ccccc1OC(F)(F)F [GMR171],100%,–,"1 h Repellency EC50, μg/cm^2 [1]: 29 μg/cm^2"
C=CC(=O)Nc1ccccc1C(F)(F)F [GMR021],92%,–,"1 h Repellency EC50, μg/cm^2 [1]: 32 μg/cm^2"
COC(=O)c1cc(C)c(C(F)(F)F)cc1N [MTFI-5-12C],30%,–,"vapor repellency / mortality, statement in words (Example 8) [1]: moderate repellency in some instances"
COC(=O)c1cccc(C(F)(F)F)c1N [MTFI-5-12B],–,–,"vapor repellency / mortality, statement in words (Example 8) [1]: moderate repellency in some instances"
CCOC(=O)c1ccccc1C(F)(F)F [MTFI-5-13B],12%,–,–
O=C(CSC(F)(F)F)Nc1cc(F)c(F)c(F)c1 [GMR177],30%,220 ng/mg,"vapor repellency / mortality, statement in words (Example 8) [1]: poor activity"
CC1(C)[C@H](C=C(Cl)Cl)[C@H]1C(=O)Nc1cc(F)cc(F)c1 [GMR179],30%,–,–
O=C(Nc1cc(Cl)cc(Cl)n1)C(F)(F)C(F)(F)C(F)(F)F [GMR078],–,5668 ng/mg,An. gambiae AKDR LD50 [2]: >100 ng/mg
O=C(NCC(F)(F)F)Nc1c(Cl)cc(C(F)(F)F)cc1Cl [MTFI-4-FPL-A],0%,–,"vapor repellency / mortality, statement in words (Example 8) [1]: reduced repellency"
COC(=O)c1cc(F)c(F)cc1N [MTFI-5-12A],92%,–,"1 h Repellency EC50, μg/cm^2 [1]: 23 μg/cm^2; vapor repellency / mortality, statement in words (Example 8) [1]: moderate repellency in some instances"
O=C(CCC1CCCCC1)Nc1c(Cl)cc(C(F)(F)F)cc1Cl [MTFI-3-5A],0%,–,–
CCCCCC(=O)N(C(=O)CCCCC)c1cccc(OC(F)(F)F)c1 [GMR165],62%,–,–
COC(=O)c1ccccc1O [MTFI-5-14A],70%,–,"vapor repellency / mortality, statement in words (Example 8) [1]: moderate repellency and toxicity"
O=C(Nc1cc(Cl)nc(Cl)c1)C(Cl)(Cl)Cl [GMR059],–,866 ng/mg,–
O=C(CCl)Nc1cccc(F)c1 [MTFI-5-1A],6%,–,–
O=C(CCC1CCCCC1)Nc1ccc(C(F)(F)F)cc1 [MTFI-3-4B],8%,–,–
COC(=O)c1ccccc1N(C)C(F)(C(F)(F)F)C(F)(F)F [MTFI-5-11A],–,–,"vapor repellency / mortality, statement in words (Example 8) [1]: moderate repellency in some instances"
CCCC(=O)N(C(=O)CCC)c1cccc(OC(F)(F)F)c1 [GMR163],50%,–,An. gambiae AKDR LD50 [2]: >1000 ng/mg; An. gambiae G3 LD50 [4]: >1000 ng/mg
O=C(Nc1ncc(C(F)(F)F)cc1Cl)C(F)(F)C(F)(F)C(F)(F)F [GMR080],–,>1000 ng/mg,An. gambiae AKDR LD50 [2]: >100 ng/mg
COC(=O)c1ccccc1C(F)(F)F [MTFI-5-13A],6%,–,–
O=C(Nc1ccnc(C(F)(F)F)c1)C(F)(F)C(F)(F)C(F)(F)C(F)(F)C(F)(F)F [GMR070],–,1261 ng/mg,An. gambiae AKDR LD50 [2]: 1261 ng/mg
O=C(Nc1ccc(Cl)cn1)C(F)(F)C(F)(F)C(F)(F)F [GMR079],–,>1000 ng/mg,An. gambiae AKDR LD50 [2]: >100 ng/mg
COc1cc(NC(=O)C(F)(F)C(F)(F)C(F)(F)C(F)(F)C(F)(F)F)ccn1 [GMR071],–,>2000 ng/mg,–
CCOC(=O)c1ccccc1O [MTFI-5-14B],30%,–,"vapor repellency / mortality, statement in words (Example 8) [1]: moderate repellency and toxicity"
